Here are results for one molecule from EP0073960A1, “2-Arylhydrazino-2-imidazolines, their acyl derivatives, process for their preparation and their use in the control of endoparasites and ectoparasites” (BAYER AG, priority 1981, dated 1983).

The test system of this experiment is Boophilus microplus, Biarra-Stamm. As to the kind of experiment: In vitro tick test: inhibition of egg laying after dipping adult engorged female ticks. Particulars: Rhipicephalus microplus, 480 h, resistant strain, ticks dipped for 1 minute, read after 20 days, read-out: 50 % Hemmung bei einer Wirkstoff-konzentration in ppm a.i.von. An excerpt:
Lösungsmittel: 35 Gewichtsteile Ethylenglykolmonomethylether 35 Gewichtsteile Nonylphenolpolyglykolether
Zwecks Herstellung einer geeigneten Formulierung vermischt man drei Gewichtsteile Wirkstoff mit sieben Teilen des oben angegebenen Lösungsmittel-Emulgator-Gemisches und verdünnt das so erhaltene Emulsionskonzentrat mit Wasser auf die jeweils gewünschte Konzentration.
In diese Wirkstoffzubereitungen werden adulte, vollgesogene Zeckenweibchen der Art Boophilus microplus (resistent) eine Minute lang getaucht. Nach dem Tauchen von je 10 weiblichen Exemplaren überführt man diese in Petrischalen, deren Boden mit einer entsprechend großen Filterscheibe belegt ist.
Nach 20 Tagen wird die Wirksamkeit der Wirkstoffzubereitung bestimmt durch Ermittlung der Hemmung der Eiablage gegenüber unbehandelten Kontrollzecken. Die Wirkung drückt man in Prozent aus, wobei 100 % bedeutet, daß keine Eier mehr abgelegt wurden und 0 % besagt, daß die Zecken Eier in normaler Menge ablegten.
Untersuchter Wirkstoff, geprüfte Konzentration, getestete Parasiten und erhaltene Befunde gehen aus der folgenden Tabelle 1 hervor.

For `Cc1cc(Cl)ccc1NC(=S)N(C)C` [Chloromethiuron], the IC50 was above 5000 µg/mL.
